According to US10512700B2, “Radiohalide-labeled targeted diagnostics and therapeutics” (Memorial Sloan Kettering Cancer Center, priority 2014, dated 2019):
Marks after values point to notes of the source that are not given here.

Key:
[1] = cited from earlier work
[2] = half-life of PARP1i-FL (T. Reiner et al., unpublished); conditions: in vivo
[3] = test system: V79 cells; conditions: DNA-incorporated; cited from earlier work

Structure (SMILES) | plasma free fraction [1] | tα1/2 [2] | tα1/2, share of phase [2] | tβ1/2 [2] | tβ1/2, share of phase [2] | weighted t1/2 [2] | RBE [3]
Cc1cc(C)n2c1C=C1C=CC(CCC(=O)N3CCN(C(=O)c4cc(Cc5n[nH]c(=O)c6ccccc56)ccc4F)CC3)=[N+]1[B-]2(F)F [PARP1i-FL] | 0.7%^b | 1.2 min | 73.2% | 88.2 min | 26.8% | 24.5 min^c | –
O=c1[nH]c(=O)n([C@H]2C[C@H](O)[C@@H](CO)O2)cc1I [^125I-IdUrd, 5-iodo-2′-deoxy uridine] | – | – | – | – | – | – | about 8
